Experimental data: PubChem BioAssay (NCI)
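A five-concentration, 48-hour dose response in 96-well plates underlies each endpoint, interpolated linearly between surrounding concentrations. GI50 is the concentration that inhibits growth by half. Definition used: TGI = concentration required for complete inhibition of growth.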

Columns and labels:
Experiment in all cases: NCI tumour cell line growth inhibition, 48 h
[1] = tested on: MOLT-4 leukemia
[2] = tested on: EKVX NSCLC
[3] = tested on: SNB-75 CNS
[4] = tested on: LOX IMVI melanoma
[5] = tested on: OVCAR-5 ovarian
[6] = tested on: NCI-H23 lung
[7] = tested on: T-47D breast
[8] = tested on: HCC-2998 colon
[9] = tested on: U251 CNS
[10] = tested on: HOP-62 NSCLC
[11] = tested on: TK-10 renal

Row | SMILES | TGI [1] [µM] | TGI [2] [µM] | TGI [3] [µM] | TGI [4] [µM] | TGI [5] [µM] | TGI [6] [µM] | TGI [7] [µM] | TGI [8] [µM] | TGI [9] [µM] | TGI [10] [µM] | TGI [11] [µM] | GI50 [3] [µM]
1 | COc1cc(NC(C)=O)ccc1C(=O)NN1C(=O)C(Cl)C1c1ccco1 (stereo not given) | > 100 | > 100 | > 100 | > 100 | > 100 | > 100 | > 100 |  |  |  |  | 
2 | COc1ccc2c(c1)/C(=C\c1c(C)nc3sc(C)cn13)C(=O)N2 | > 83.8 | 44.2 |  | 61.2 | 74.4 | > 70.7 | > 100 | 3.85 | 7.2 | > 100 | > 100 | 
3 | N#CC(=C1CCCCC1)c1nc2ccccc2o1 | > 100 | 89.4 |  |  | > 100 | > 100 | > 100 | > 100 | > 100 | > 100 | > 100 | 
4 | Cc1cccc(CC(Cc2c(C)cccc2C(=O)O)C(=O)O)c1 (stereo not given) | > 100 | > 100 | > 100 | > 100 | > 100 | > 100 |  | > 100 | > 100 | > 100 | > 100 | 
5 | O=C(O)CS | > 100 | > 100 | > 100 | > 100 | > 100 | > 100 |  | > 100 | > 100 |  | > 100 | 
6 | Cc1c2c(n(CCc3ccccc3)c1C)N(C)N=C(C#N)S2(=O)=O | > 100 | > 100 | > 100 |  | > 100 | > 100 | > 100 | > 100 | > 100 | > 100 | > 100 | 
7 | CC1(C)OB(O)OC1(C)C | > 100 | > 100 | > 100 | > 100 | > 100 | > 100 |  | > 100 |  | > 100 | > 100 | 
8 | C=C1C(=O)OC2/C=C(/C)C3CC(O)C(C)(CC(OC(=O)/C(C)=C/C)C12)O3 (stereo not given) | > 26.8 | 14.5 | 28.2 | 4.4 | 21.6 | 16.9 |  | 28.4 | 25.3 | 46.7 | 20.1 | 
9 | CC(C)CCC[C@@H](C)C1CCC2[C@@H]3CC=C4C[C@@H](C(=O)NCC[N+](C)(C)CCCS(=O)(=O)[O-])CC[C@]4(C)C3CC[C@@]21C (stereo not given in full) | 35.1 | 31 | 35.1 | 25.2 |  |  |  | 35.2 | 31.2 | 42.9 |  | 
10 | CCOC(=O)Cc1csc2[n+]1C(=O)/C(=C\c1cccc(Cl)c1Cl)S2 | 33.5 | 50.7 | 76.6 | 42.2 | > 100 | 48.9 |  | 39.7 | 64.6 | 46.9 | 55.6 | 
11 | CCN(CC)CCCC(C)Nc1ccnc2ccc3nn(C)nc3c12 (stereo not given) | > 100 | > 100 | > 100 | 41.1 | > 100 | > 100 |  | > 100 | > 100 | > 100 | > 100 | 
12 | OC[C@]1(n2nc3ccccc3n2)OC[C@@H]1c1ccccc1 | > 100 | > 100 |  | > 100 | > 100 | > 100 | > 100 | > 100 | > 100 | > 100 | > 100 | 
13 | O=C(NNC(c1ccccc1)C(F)(F)F)c1ccncc1 (stereo not given) | > 100 | > 100 | > 100 | > 100 | > 100 | > 100 |  | > 100 | > 100 | > 100 | > 100 | 
14 | CC1=C(C(=O)Nc2cc(=O)n(C)c(=O)n2C)C(c2ccc([N+](=O)[O-])cc2)C(C(=O)Nc2cc(=O)n(C)c(=O)n2C)=C(C)N1 | > 100 | > 100 | > 100 | > 100 | > 100 | > 100 |  | > 100 | > 100 | > 100 | > 100 | 
15 | NC(=O)NC(=O)c1cccc(CNc2ccc(C(=O)N[C@@H](CCC(=O)O)C(=O)O)cc2)n1 | > 100 | > 100 |  | > 100 | > 100 | > 100 |  | > 100 | > 100 |  | > 100 | 
16 | O=C(Cc1csc(-c2nc(CC(=O)NNc3ccccc3)cs2)n1)NNc1ccccc1 | > 100 | > 100 | > 100 | 43.7 | > 100 | > 100 |  | > 100 | > 100 | > 100 | > 100 | 
17 | COc1ccc(/C=C2\CCC(C)/C(=C\c3ccc(OC)c(OC)c3)C2=O)cc1OC (stereo not given) | 11.7 | 10.2 |  | 19.2 | 26.6 | 15.6 | 28.2 |  | > 100 |  | 7.41 | 
18 | COc1cc(/C=C2/SC(c3ccccc3)N(c3ccccc3)C2=O)cc(OC)c1OC (stereo not given) | > 100 | > 100 |  | > 100 | > 100 | > 100 | > 100 | > 100 | > 100 | > 100 | > 100 | 
19 | O=C(N/N=C/c1ccc([N+](=O)[O-])o1)c1ccc(C(=O)N/N=C/c2ccc([N+](=O)[O-])o2)cc1 | > 100 | > 100 | > 100 | 94.9 | > 100 | > 100 | > 100 |  | > 100 | > 100 |  | 
20 | CC(=O)c1ccc2c(ccc(=O)n2C)c1 | > 100 | > 100 | > 100 | > 100 | > 100 | > 100 |  | > 100 | > 100 | > 100 | > 100 | 
21 | CS(=O)(=O)c1c(N)c2nc(Cl)cn2c2nc3ccccc3nc12 | > 100 | > 100 | > 100 | > 100 | > 100 | > 100 |  | > 100 | > 100 | > 100 |  | 

Row | SMILES | TGI [1] [µM] | TGI [2] [µM] | TGI [3] [µM] | TGI [4] [µM] | TGI [5] [µM] | TGI [6] [µM] | TGI [7] [µM] | TGI [8] [µM] | TGI [9] [µM] | TGI [10] [µM] | TGI [11] [µM] | GI50 [3] [µM]
22 | c1ccc(C2=NOC3(c4ccccc4)SC4CCCCC4CN23)cc1 (stereo not given) | 51.3 | > 100 | 84.8 | 34 | > 100 | > 100 |  | > 100 | 37.6 | > 100 | > 100 | 
23 | CCCCc1ccc(Nc2nc(=S)c3[nH]cnc3[nH]2)cc1 | 22.2 |  |  | 31.7 | 43.5 | 51.7 | 49.3 | 66.4 | > 100 |  | 46.5 | 
24 | Brc1c(C#CCC(c2ccccc2)(c2ccccc2)c2ccccc2)ccc(C#CCC(c2ccccc2)(c2ccccc2)c2ccccc2)c1Br | > 100 | > 100 | > 100 |  | > 100 | > 100 | > 100 | > 100 | > 100 |  | > 100 | 
25 | C#CCN(N=O)C(=O)NC(CCCNC(=O)OCc1ccccc1)C(=O)OCc1ccccc1 (stereo not given) | 65.5 | > 100 | > 100 | > 100 | > 100 | > 100 |  | > 100 | > 100 | > 100 | > 100 | 
26 | CCN(CC)C(=S)SS(=O)(=O)c1ccc(Cl)cc1 |  | > 100 |  | 29.2 | > 100 | > 100 | > 100 | > 100 | 30.4 | 65.7 | > 100 | 
27 | COc1cc(C)cc2c1c(=O)c1ccccc1n2C | > 100 | > 100 | 99.4 | 53.6 | > 100 | > 100 |  | > 100 | 96.1 | > 100 | > 100 | 
28 | Cc1nc(C(N)=S)sc1C(/C=C/c1ccc(Cl)c(Cl)c1)=N/NC(C)(C)C | 80.5 | > 100 | > 100 | > 100 |  | > 100 |  | > 100 | > 100 |  | > 100 | 
29 | CC(C)(C)NC(=O)NC12CC3CC(CC(F)(C3)C1)C2 | > 100 | > 100 | > 100 | > 100 | > 100 | > 100 |  | > 100 | > 100 | > 100 | > 100 | 
30 | C=C(C)C1CC/C(C)=C/CC[C@]2(C)O[C@H]2CC/C(COC(C)=O)=C\[C@@H]1O (stereo not given in full) | > 50 | > 50 | 15.2 |  | > 50 | > 50 | > 50 | > 50 | > 50 | > 50 | > 50 | 0.625
31 | Cc1ccc(N=N/C(=N/NC(=O)c2cc(Cl)ccc2C(=O)c2ccccc2)c2ccc(N(CCC#N)CCC#N)cc2C)cc1 | 26.2 | 84.7 | > 100 |  | > 100 | > 100 | 27.9 | 43.9 | > 100 | > 100 | > 100 | 
32 | Cc1oc(N)c(S(=O)(=O)c2ccc(Cl)cc2)c1C | > 100 | > 100 | > 100 |  | > 100 | > 100 | > 100 | > 100 | > 100 |  | > 100 | 
33 | Cc1cc(S(=O)(=O)/N=C(\[N-]S(=O)(=O)c2ccc(Cl)cc2)[n+]2ccc(N(C)C)cc2)c(S)cc1Cl | 96.5 | > 100 |  | > 100 | > 100 | > 100 | > 100 | > 100 | > 100 | > 100 | > 100 | 
34 | O=C(C[n+]1ccccc1)N/N=C(\Cc1nc2ccc([N+](=O)[O-])cc2[nH]c1=O)C(=O)Nc1cc(Cl)c(Cl)cc1Cl | > 100 | > 100 | > 100 | > 100 | > 100 | > 100 | > 100 | > 100 | > 100 |  |  | 
35 | Clc1ccccc1C1=NN(c2ccccc2)C2c3ccccc3OCC12 (stereo not given) | > 100 | > 100 | > 100 | > 100 | > 100 | > 100 |  | > 100 | > 100 | > 100 | > 100 | 
36 | COc1cc(C=C2C(C)=NN(c3cccc(Cl)c3)C23C(Cl)C(=O)N3c2nc3ccccc3s2)ccc1O (stereo not given) | 21.1 | > 100 |  | 40.2 | 50.9 | 57.4 | > 100 | 9.16 | 35 | 69.1 | > 100 | 
37 | C/C=C\C(CC(=O)NCCC1CN(S(=O)(=O)C(F)(F)F)c2ccccc21)CC(=O)OC (stereo not given) | > 100 | > 100 |  |  | > 100 | > 100 |  | > 100 | > 100 | > 100 |  | 
38 | O=C1CC(=O)NC(=NN2C(=O)/C(=C/c3ccccc3)N=C2c2ccccc2)N1 | > 100 |  | > 100 |  | > 100 | > 100 | > 100 | > 100 | > 100 | > 100 | > 100 | 
39 | CC(=O)Oc1cc2c(c3ncccc13)OC(C)(C)C2 | 29.9 |  | 17.2 |  | 29 | > 100 | 81.2 | > 100 | 31.8 | 30.6 | 26.3 | 
40 | COc1ccc(C2Oc3cc(OC)c(O)c(C)c3[C@H]2C)cc1 (stereo not given in full) | 89.3 | > 100 | 69.5 | > 100 | > 100 | > 100 |  | > 100 | > 100 | > 100 | > 100 | 
41 | COC(C(=O)C(O)C(C)O)C1CC2C=C3C=C(OC4CC(OC5CC(O)C(OC)C(C)O5)C(OC(C)=O)C(C)O4)C(C)C(=O)C3=C(O)C2=C(O)C1OC1CC(OC2CC(OC3CC(C)(O)C(OC(=O)C(C)C)C(C)O3)C(O)C(C)O2)C(O)C(C)O1 (stereo not given) | > 100 | < 0.01 | < 0.01 |  |  | < 0.01 | < 0.01 | < 0.01 |  | < 0.01 | > 100 | 
42 | NC(=O)c1coc(C2OC(CO)C(O)C2O)n1 (stereo not given) | > 100 | > 100 |  | > 100 | > 100 | > 100 |  | > 100 | > 100 | > 100 | > 100 | 
